Patent US20240138411A1, “METHOD OF […] OF SUGARCANE” (CORTEVA AGRISCIENCE LLC, priority 2021, published 2024)

Tested on: sugarcane
Assay: Sugarcane flowering inhibition field trials, floral induction rated on UFSCar scale
Format: in vivo
Method: In order to explore the activity of florpyrauxifen as flowering inhibitor in sugarcane, field studies were carried out. Florpyrauxifen-benzyl was tested at rates from 2 to 20 grams active ingredient per hectare (g ai/ha) and compared to Ethrel® 720 (Bayer), the standard treatment. The flowering inhibition effect was assessed by checking the floral induction in sugarcane through the percentage scale recommended by UFSCar (Federal University of Sao Carlos, Sao Paulo, Brazil).
Four trials were carried out in sugarcane where florpyrauxifen-benzyl (Rinskor®), applied at a rate of 2 to 20 g ai/ha, was compared to ethephon (Ethrel® 720) applied at a rate of 475 g ai/ha. Control plots of untreated sugarcane were also evaluated. Rinskor® and Ethrel® 720 were diluted in water and a single application for each study (backpack sprayer) was performed delivering 50 L of spray solution per ha at the reproductive stage of sugarcane and at a maximum 150 days before harvest. The activity of florpyrauxifen-benzyl as a flowering inhibitor was measured via assessments (Scale of flowering inhibition—see chart 1) performed at 0, 14, 30, 45, 60, 75, 90, 120, 150 days after application, or up to harvest time. The assessments were measured in sugarcane stems, rating the flowering induction according to the UFSCar scale shown below. Significance of treatment effect was evaluated with F-approximate test (α=0.1) and least square means from different treatments were compared with Tukey's test.

COc1c(Cl)ccc(-c2nc(C(=O)OCc3ccccc3)c(Cl)c(N)c2F)c1F [Rinskor, florpyrauxifen-benzyl]
Frequency 1/1 (0%) (Table 2, 120 DAA, 5 g ai/ha): 0.0%
Frequency 2/1 (15%) (Table 2, 120 DAA, 5 g ai/ha): 0.0%
Frequency 3/1 (30%) (Table 2, 120 DAA, 5 g ai/ha): 0.0%
Frequency 4/1 (50%) (Table 2, 120 DAA, 5 g ai/ha): 0.0%
Frequency 4/2 (80%) (Table 2, 120 DAA, 5 g ai/ha): 7.5%
Frequency 4/3 (90%) (Table 2, 120 DAA, 5 g ai/ha): 20.0%
Frequency 4/4 (100%) (Table 2, 120 DAA, 5 g ai/ha): 72.5%
% Referring to Scale (Table 2, 120 DAA, 7 g ai/ha): 97.0%
Frequency 1/1 (0%) (Table 2, 120 DAA, 7 g ai/ha): 0.0%
Frequency 2/1 (15%) (Table 2, 120 DAA, 7 g ai/ha): 0.0%
Frequency 3/1 (30%) (Table 2, 120 DAA, 7 g ai/ha): 0.0%
Frequency 4/1 (50%) (Table 2, 120 DAA, 7 g ai/ha): 0.0%
Frequency 4/2 (80%) (Table 2, 120 DAA, 7 g ai/ha): 5.0%
Frequency 4/3 (90%) (Table 2, 120 DAA, 7 g ai/ha): 20.0%
Frequency 4/4 (100%) (Table 2, 120 DAA, 7 g ai/ha): 75.0%
% Referring to Scale (Table 2, 120 DAA, 10 g ai/ha): 96.8%
Frequency 1/1 (0%) (Table 2, 120 DAA, 10 g ai/ha): 0.0%
Frequency 2/1 (15%) (Table 2, 120 DAA, 10 g ai/ha): 0.0%
Frequency 3/1 (30%) (Table 2, 120 DAA, 10 g ai/ha): 0.0%
Frequency 4/1 (50%) (Table 2, 120 DAA, 10 g ai/ha): 0.0%
Frequency 4/2 (80%) (Table 2, 120 DAA, 10 g ai/ha): 10.0%
Frequency 4/3 (90%) (Table 2, 120 DAA, 10 g ai/ha): 12.5%
Frequency 4/4 (100%) (Table 2, 120 DAA, 10 g ai/ha): 77.5%
% Referring to Scale (Table 2, 120 DAA, 15 g ai/ha): 98.5%
Frequency 1/1 (0%) (Table 2, 120 DAA, 15 g ai/ha): 0.0%
Frequency 2/1 (15%) (Table 2, 120 DAA, 15 g ai/ha): 0.0%
Frequency 3/1 (30%) (Table 2, 120 DAA, 15 g ai/ha): 0.0%
Frequency 4/1 (50%) (Table 2, 120 DAA, 15 g ai/ha): 0.0%
Frequency 4/2 (80%) (Table 2, 120 DAA, 15 g ai/ha): 0.0%
Frequency 4/3 (90%) (Table 2, 120 DAA, 15 g ai/ha): 15.0%
Frequency 4/4 (100%) (Table 2, 120 DAA, 15 g ai/ha): 85.0%
% Referring to Scale (Table 2, 120 DAA, 20 g ai/ha): 97.5%
Frequency 1/1 (0%) (Table 2, 120 DAA, 20 g ai/ha): 0.0%
Frequency 2/1 (15%) (Table 2, 120 DAA, 20 g ai/ha): 0.0%
Frequency 3/1 (30%) (Table 2, 120 DAA, 20 g ai/ha): 0.0%
Frequency 4/1 (50%) (Table 2, 120 DAA, 20 g ai/ha): 0.0%
Frequency 4/2 (80%) (Table 2, 120 DAA, 20 g ai/ha): 7.5%
Frequency 4/3 (90%) (Table 2, 120 DAA, 20 g ai/ha): 10.0%
Frequency 4/4 (100%) (Table 2, 120 DAA, 20 g ai/ha): 82.5%
% Referring to Scale (Table 3, 90 DAA, 2 g ai/ha): 0.0%
Frequency 1/1 (0%) (Table 3, 90 DAA, 2 g ai/ha): 100.0%
Frequency 2/1 (15%) (Table 3, 90 DAA, 2 g ai/ha): 0.0%
Frequency 3/1 (30%) (Table 3, 90 DAA, 2 g ai/ha): 0.0%
Frequency 4/1 (50%) (Table 3, 90 DAA, 2 g ai/ha): 0.0%
Frequency 4/2 (80%) (Table 3, 90 DAA, 2 g ai/ha): 0.0%
Frequency 4/3 (90%) (Table 3, 90 DAA, 2 g ai/ha): 0.0%
Frequency 4/4 (100%) (Table 3, 90 DAA, 2 g ai/ha): 0.0%
% Referring to Scale (Table 3, 90 DAA, 5 g ai/ha): 0.0%
Frequency 1/1 (0%) (Table 3, 90 DAA, 5 g ai/ha): 100.0%
Frequency 2/1 (15%) (Table 3, 90 DAA, 5 g ai/ha): 0.0%
Frequency 3/1 (30%) (Table 3, 90 DAA, 5 g ai/ha): 0.0%
Frequency 4/1 (50%) (Table 3, 90 DAA, 5 g ai/ha): 0.0%
Frequency 4/2 (80%) (Table 3, 90 DAA, 5 g ai/ha): 0.0%
Frequency 4/3 (90%) (Table 3, 90 DAA, 5 g ai/ha): 0.0%
Frequency 4/4 (100%) (Table 3, 90 DAA, 5 g ai/ha): 0.0%
% Referring to Scale (Table 3, 90 DAA, 7 g ai/ha): 0.0%
Frequency 1/1 (0%) (Table 3, 90 DAA, 7 g ai/ha): 100.0%
Frequency 2/1 (15%) (Table 3, 90 DAA, 7 g ai/ha): 0.0%
Frequency 3/1 (30%) (Table 3, 90 DAA, 7 g ai/ha): 0.0%
Frequency 4/1 (50%) (Table 3, 90 DAA, 7 g ai/ha): 0.0%
Frequency 4/2 (80%) (Table 3, 90 DAA, 7 g ai/ha): 0.0%
Frequency 4/3 (90%) (Table 3, 90 DAA, 7 g ai/ha): 0.0%
Frequency 4/4 (100%) (Table 3, 90 DAA, 7 g ai/ha): 0.0%
% Referring to Scale (Table 3, 90 DAA, 10 g ai/ha): 0.4%
Frequency 1/1 (0%) (Table 3, 90 DAA, 10 g ai/ha): 97.5%
Frequency 2/1 (15%) (Table 3, 90 DAA, 10 g ai/ha): 2.5%
Frequency 3/1 (30%) (Table 3, 90 DAA, 10 g ai/ha): 0.0%
Frequency 4/1 (50%) (Table 3, 90 DAA, 10 g ai/ha): 0.0%
Frequency 4/2 (80%) (Table 3, 90 DAA, 10 g ai/ha): 0.0%
Frequency 4/3 (90%) (Table 3, 90 DAA, 10 g ai/ha): 0.0%
Frequency 4/4 (100%) (Table 3, 90 DAA, 10 g ai/ha): 0.0%
% Referring to Scale (Table 3, 90 DAA, 15 g ai/ha): 0.0%
Frequency 1/1 (0%) (Table 3, 90 DAA, 15 g ai/ha): 100.0%
Frequency 2/1 (15%) (Table 3, 90 DAA, 15 g ai/ha): 0.0%
Frequency 3/1 (30%) (Table 3, 90 DAA, 15 g ai/ha): 0.0%
Frequency 4/1 (50%) (Table 3, 90 DAA, 15 g ai/ha): 0.0%
Frequency 4/2 (80%) (Table 3, 90 DAA, 15 g ai/ha): 0.0%
Frequency 4/3 (90%) (Table 3, 90 DAA, 15 g ai/ha): 0.0%
Frequency 4/4 (100%) (Table 3, 90 DAA, 15 g ai/ha): 0.0%
% Referring to Scale (Table 3, 90 DAA, 20 g ai/ha): 0.0%
Frequency 1/1 (0%) (Table 3, 90 DAA, 20 g ai/ha): 100.0%
Frequency 2/1 (15%) (Table 3, 90 DAA, 20 g ai/ha): 0.0%
Frequency 3/1 (30%) (Table 3, 90 DAA, 20 g ai/ha): 0.0%
Frequency 4/1 (50%) (Table 3, 90 DAA, 20 g ai/ha): 0.0%
Frequency 4/2 (80%) (Table 3, 90 DAA, 20 g ai/ha): 0.0%
Frequency 4/3 (90%) (Table 3, 90 DAA, 20 g ai/ha): 0.0%
Frequency 4/4 (100%) (Table 3, 90 DAA, 20 g ai/ha): 0.0%
% Referring to Scale (Table 3, 120 DAA, 2 g ai/ha): 5.6%
Frequency 1/1 (0%) (Table 3, 120 DAA, 2 g ai/ha): 62.5%
Frequency 2/1 (15%) (Table 3, 120 DAA, 2 g ai/ha): 37.5%
Frequency 3/1 (30%) (Table 3, 120 DAA, 2 g ai/ha): 0.0%
Frequency 4/1 (50%) (Table 3, 120 DAA, 2 g ai/ha): 0.0%
Frequency 4/2 (80%) (Table 3, 120 DAA, 2 g ai/ha): 0.0%
Frequency 4/3 (90%) (Table 3, 120 DAA, 2 g ai/ha): 0.0%
Frequency 4/4 (100%) (Table 3, 120 DAA, 2 g ai/ha): 0.0%
% Referring to Scale (Table 3, 120 DAA, 5 g ai/ha): 6.9%
Frequency 1/1 (0%) (Table 3, 120 DAA, 5 g ai/ha): 62.5%
Frequency 2/1 (15%) (Table 3, 120 DAA, 5 g ai/ha): 32.5%
Frequency 3/1 (30%) (Table 3, 120 DAA, 5 g ai/ha): 2.5%
Frequency 4/1 (50%) (Table 3, 120 DAA, 5 g ai/ha): 2.5%
Frequency 4/2 (80%) (Table 3, 120 DAA, 5 g ai/ha): 0.0%
Frequency 4/3 (90%) (Table 3, 120 DAA, 5 g ai/ha): 0.0%
Frequency 4/4 (100%) (Table 3, 120 DAA, 5 g ai/ha): 0.0%
% Referring to Scale (Table 3, 120 DAA, 7 g ai/ha): 3.0%
Frequency 1/1 (0%) (Table 3, 120 DAA, 7 g ai/ha): 80.0%
Frequency 2/1 (15%) (Table 3, 120 DAA, 7 g ai/ha): 20.0%
Frequency 3/1 (30%) (Table 3, 120 DAA, 7 g ai/ha): 0.0%
Frequency 4/1 (50%) (Table 3, 120 DAA, 7 g ai/ha): 0.0%
Frequency 4/2 (80%) (Table 3, 120 DAA, 7 g ai/ha): 0.0%
Frequency 4/3 (90%) (Table 3, 120 DAA, 7 g ai/ha): 0.0%
Frequency 4/4 (100%) (Table 3, 120 DAA, 7 g ai/ha): 0.0%
% Referring to Scale (Table 3, 120 DAA, 10 g ai/ha): 4.1%
